# Experimental data as given in US10561736B1, “Apoptosis inhibitor formulations for prevention of hearing loss” (Spiral Therapeutics, Inc., priority 2019, dated 2020).
# “Also recorded” adds a separate entry of the source.
# How the values were obtained:
# [1] = tested on: ion channels, including hERG potassium channels; experiment: effects on ion channels in CHO and HEK 293 cells; assay type: cell-based
# Description: Torsadogenic refers to the development of torsade de Pointes (TdP) arrythimias.
# Sprague-Dawley rats [2] = experiment: GLP acute systemic toxicity study with toxicokinetics, single IP dose; assay type: in vivo; conditions: rat; for dose proportionality of Cmax and AUClast: IP 100 to 750 mg/kg/day
# Method: A GLP acute systemic toxicity study was conducted with LPT99 administered via IP injection in Sprague-Dawley rats. The acute systemic toxicity study was preceded by a non-GLP maximum tolerated dose (MTD) toxicity study, via the same administration and test system, which determined the MTD of LTP99 to be 1000 mg/kg.
# (§1) LPT99 was suspended in vehicle [0.5% w/v methylcellulose and 0.1% v/v TWEEN® 80 in Milli-Q water] and administered intraperitoneally to Sprague-Dawley rats as a single dose at the doses of 100 (low—G2/G2TK), 300 (mid—G3/G3TK), and 750 (high—G4/G4TK) mg/kg body weight. The rats in vehicle control groups (G1/G1TK) received the vehicle alone. The dose volume administered was at an equivolume of 10 mL/kg body weight for all groups.
# The main toxicity groups consist of 15 rats/sex/group in G1 and G4 groups and 10 rats/sex/group in G2 and G3 groups. The toxicokinetic groups consisted of 6 males and 6 female rats each for the prevention groups, whereas the vehicle control group had 3 male and 3 female rats.
# Sprague-Dawley rats [3] = experiment: functional observation battery, IP injection; assay type: in vivo; conditions: rat
# Method: as §1, with “A functional observation battery was conducted with LPT99 administered via IP (intraperitoneal) injection in Sprague-Dawley rats. The study was preceded by a non-GLP maximum tolerated dose (MTD) toxicity study, via the same administration and test system, which determined the MTD of LTP99 to be 1000 mg/kg. LPT99” for “LPT99”, “TWEEN®80” for “TWEEN® 80”
# as §1
# [4] = in vitro release assay from P407 hydrogel through dialysis membrane into artificial perilymph; assay type: physicochemical; conditions: 3500 Da dialysis membrane, 37° C.
# Method: The in vitro release assay was performed using cellulose dialysis membranes of 3500 Da (OrDial D35-MWCO 3500, Orange Scientific) to simulate the round window membrane, located between the middle ear and the inner ear, as it is the first barrier for the drug to reach the inner ear where it will exert its pharmacological action. (See FIG. 1) Artificial perilymph (NaCl 137 mM, KCl 5 mM, CaCl2 2 mM, MgCl2 1 mM and NaHCO3 1 mM) was used to simulate the environment inside the inner ear, since this is the liquid that interact with the drug after crossing the round window. The assay was performed at 37° C., continuing with the simulation of ear conditions.
# To prepare the release assay, ten (10) mL of the LPT99 loaded hydrogel was placed inside a 3500 Da dialysis membrane, the membrane with the hydrogel was introduced into a 100 ml borosilicate glass lab bottle and 30 ml of artificial perilymph was added. All samples were kept under magnetic stirring at 37° C. […]
# Samples were taken at different time points (1 h, 3 h, 6 h, 1 day, 2 days, 3 days, 6 days, 7 days, 8 days, 9 days, 10 days, 13 days, 14 days and 15 days) at which time 5 mL were withdrawn with a graduated glass pipette and replaced with equivalent volume of artificial perilymph. The collected samples were analyzed to determine the amount of drug released from the hydrogel at each time point. […]
# rats = experiment: GLP auditory safety study after single IT administration; assay type: in vivo, rat
# Method: Gross observations were recorded, and selected organs were weighed.
# [5] = tested on: Chinese hamster ovary (CHO) cell; experiment: in vitro CHO cell aberration assay; assay type: cell-based; conditions: presence or absence of S9 metabolism
# [6] = tested on: bacterial reverse mutation; experiment: GLP in vitro bacterial reverse mutation assay (Ames test); assay type: cell-based
# hERG = molecular target: T1, hERG (Homo sapiens, UniProt Q12809); experiment: hERG automated patch clamp assay in hERG-CHO cells; assay type: cell-based
# T1 construct: expressed in transfected cells; host or cells: CHO
# Description: The potential cardiotoxicity of LPT99 was investigated in an assay using the hERG-CHO cells transfected with the automated patch clamp assay.
# [7] = cochlear distribution after IT administration (absorption); assay type: in vivo, rat; conditions: LPT99 formulation in hydrogel, detection limit 2 ng/mL=3.2 nM
# HEI-OC1 cells = conditions: cellular model of CisPt-induced apoptosis; IEB Symposium abstracts 2016; cited from earlier work
# [8] = metabolic stability in microsomal and S9 hepatic fractions; assay type: in vitro ADME; conditions: after 1 hour
# Description: The metabolic profile and stability of LPT99 was characterized in human, dog, rabbit, rat, and mouse microsomal and S9 fractions, and in human cytosolic fractions.
# T1 sequence (Q12809 whole entry): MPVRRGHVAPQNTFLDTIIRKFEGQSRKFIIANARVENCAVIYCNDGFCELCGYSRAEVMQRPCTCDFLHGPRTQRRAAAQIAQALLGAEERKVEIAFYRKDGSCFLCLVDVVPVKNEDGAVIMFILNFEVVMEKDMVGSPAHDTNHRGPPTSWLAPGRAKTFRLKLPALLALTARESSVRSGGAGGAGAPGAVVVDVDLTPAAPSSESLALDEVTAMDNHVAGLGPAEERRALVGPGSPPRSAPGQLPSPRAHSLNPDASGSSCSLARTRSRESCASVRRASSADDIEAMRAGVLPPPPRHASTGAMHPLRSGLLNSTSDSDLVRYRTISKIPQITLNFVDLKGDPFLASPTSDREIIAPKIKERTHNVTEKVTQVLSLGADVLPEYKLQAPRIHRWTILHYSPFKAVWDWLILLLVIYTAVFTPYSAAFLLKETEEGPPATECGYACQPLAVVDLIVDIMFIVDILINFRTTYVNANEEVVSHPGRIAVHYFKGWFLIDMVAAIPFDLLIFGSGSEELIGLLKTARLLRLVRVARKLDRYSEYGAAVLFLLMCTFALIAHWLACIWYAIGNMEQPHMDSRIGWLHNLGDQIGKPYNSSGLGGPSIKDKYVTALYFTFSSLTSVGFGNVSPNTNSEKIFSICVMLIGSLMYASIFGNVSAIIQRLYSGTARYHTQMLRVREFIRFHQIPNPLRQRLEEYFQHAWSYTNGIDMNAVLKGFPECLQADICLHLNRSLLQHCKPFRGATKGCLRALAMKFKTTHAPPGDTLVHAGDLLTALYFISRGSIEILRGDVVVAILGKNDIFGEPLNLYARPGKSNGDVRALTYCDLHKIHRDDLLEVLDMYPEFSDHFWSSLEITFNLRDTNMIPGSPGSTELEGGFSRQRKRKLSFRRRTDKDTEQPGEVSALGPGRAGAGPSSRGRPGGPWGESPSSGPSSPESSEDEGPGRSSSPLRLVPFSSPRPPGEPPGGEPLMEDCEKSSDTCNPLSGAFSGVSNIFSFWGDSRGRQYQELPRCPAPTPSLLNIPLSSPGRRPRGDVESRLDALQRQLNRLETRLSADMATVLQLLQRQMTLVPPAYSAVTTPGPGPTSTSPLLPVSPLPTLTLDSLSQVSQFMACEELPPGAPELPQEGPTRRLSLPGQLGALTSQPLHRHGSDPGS
smiles,measurement,setting,value
"COc1ccc2[nH]cc(CCNC(=O)CC3C(=O)N(CCc4ccc(Cl)cc4Cl)CC(=O)N3CCc3cccs3)c2c1 (stereo not drawn) [LPT99, 2-(4-(2,4-dichlorophenethyl)-3,6-dioxo-1-(2-(thiophen-2-yl)ethyl)piperazin-2-yl)-N-(2-(5-methoxy-1H-indol-3-yl)ethyl)acetamide]",torsadogenic / cardiotoxic risk,[1],low torsadogenic risk; also recorded: low cardiotoxic risk
same,body weights or body weight gains,"Sprague-Dawley rats [2]; IP 750 mg/kg, first 7 days, both sex",not statistically significantly lower
same,food consumption,"Sprague-Dawley rats [2]; IP 750 mg/kg, males days 1-7, females days 1-4, vs control",statistically significant reduction
same,epididymides weight,"Sprague-Dawley rats [2]; IP 750 mg/kg, males, Day 2",increase in epididymides weight
same,neutrophil count,"Sprague-Dawley rats [2]; IP 750 mg/kg, males, Day 15",minimal increase in neutrophil count
same,dose proportionality of Cmax and AUClast,Sprague-Dawley rats [2]; female,approximate dose proportional increase
same,dose proportionality of Cmax and AUClast,Sprague-Dawley rats [2]; male,More than dose proportional increase
same,liver weight,"Sprague-Dawley rats [2]; IP 300 and 750 mg/kg, males and females, Day 2",increase in liver weight
same,"inflammatory response, localisation","Sprague-Dawley rats [2]; IP, Day 2 and Day 15, parenchyma not affected",restricted to the mesentery and surface of the visceral organs in abdominal cavity
same,coagulation parameters,"Sprague-Dawley rats [2]; IP, Days 2 and 15",not affected
same,urinalysis parameters,"Sprague-Dawley rats [2]; IP, Days 2 and 15",unaffected
same,neutrophil count,"Sprague-Dawley rats [2]; IP, all dose groups, Day 2",increased neutrophil count
same,"mediastinal lymph node, microscopic finding","Sprague-Dawley rats [2]; IP, all test item injected groups, Day 2",necrosis/inflammation of lymph node
same,exposure in females relative to males,"Sprague-Dawley rats [2]; IP, all tested dose levels",1.5-5.5 fold
same,clinical chemistry parameters,"Sprague-Dawley rats [2]; IP, males",no test item related changes
same,general tolerability,"Sprague-Dawley rats [2]; single IP 100, 300, 750 mg/kg",generally safe and well tolerated
same,mortality,"Sprague-Dawley rats [2]; single IP 100, 300, 750 mg/kg",No mortality was observed
same,clinical signs,"Sprague-Dawley rats [2]; single IP, all tested dose groups",no clinical signs observed
same,neurological parameters,"Sprague-Dawley rats [3]; IP 100 mg/kg, Day 1",unaffected
same,motor activity scores,"Sprague-Dawley rats [3]; IP 300 and 750 mg/kg, both sexes, day 1, reversible by Day 15",lower motor activity scores
same,LPT99 release from hydrogel over time,[4],released in effective amounts for at least one week
same,tolerability of single IT dose,"rats; rat, 200, 400, or 797 μM, 30 μL per ear",generally well tolerated
same,mass of injected LPT99 at the no observed adverse effect level (NOAEL),"rats; rat, IT, 30 μl of 797 μM",15 µg
same,auditory brainstem response (hearing loss),"rats; rat, in vivo",no reliable evidence of test-article-related hearing loss
same,cytocochleogram (hair cell loss),"rats; rat, in vivo",no reliable evidence of test-article-related hair cell loss
same,"otoscopic examination of the tympanic membranes (erythema, edema, wounds)","rats; rat, in vivo","no statistically significant changes in erythema, edema, or wounds"
same,"mortalities, clinical abnormalities, body weight, food intake, clinical pathologies","rats; rat, single bilateral IT 30 μL per ear, 14-day study",no LPT99- or gentamicin-related mortalities
same,structural aberrations in cultured mammalian cells,[5],did not induce structural aberrations
same,genetic toxicity (Ames test),[6],no evidence of genetic toxicity
same,safety margin (hERG IC50 vs plasma detection limit 3.2 nM),hERG,> 1063
same,IC50,"hERG; hERG-CHO cells, automated patch clamp",3.4 µM
same,LPT99 in plasma after IT administration,[7],no LPT99 has been found in plasma; also recorded: not detected systemically
same,LPT99 in plasma after IT administration,[7]; listed as LTP99,not detectable in plasma
same,cell viability,HEI-OC1 cells,improved cell viability
same,metabolized,[8]; dog microsomal and S9 hepatic fractions,> 90%
same,metabolized,[8]; human microsomal and S9 hepatic fractions,> 90%
same,metabolized,[8]; mouse microsomal and S9 hepatic fractions,> 90%
same,metabolized,[8]; rabbit microsomal and S9 hepatic fractions,> 90%
same,metabolized,[8]; rat microsomal and S9 hepatic fractions,> 90%
